Test results taken from US8044079B2, “Substituted oxindole derivatives, medicaments containing said derivatives and use thereof” (Abbott GmbH & Co. KG, priority 2005, dated 2011).

These compounds were tested against T1, human vasopressin V1b receptor (Homo sapiens, UniProt P47901) (assay: Vasopressin V1b receptor binding test). Conditions: membranes of CHO-K1 cells with human V1b receptor, displacement of 1.5 nM 3H-AVP; for compounds with more than one stereogenic center the diastereomer with greater affinity.
T1 construct: expressed in transfected cells; host or cells: CHO-K1 (cell line hV1b_3H2_CHO), membrane preparation
T1 sequence (P47901 1-424): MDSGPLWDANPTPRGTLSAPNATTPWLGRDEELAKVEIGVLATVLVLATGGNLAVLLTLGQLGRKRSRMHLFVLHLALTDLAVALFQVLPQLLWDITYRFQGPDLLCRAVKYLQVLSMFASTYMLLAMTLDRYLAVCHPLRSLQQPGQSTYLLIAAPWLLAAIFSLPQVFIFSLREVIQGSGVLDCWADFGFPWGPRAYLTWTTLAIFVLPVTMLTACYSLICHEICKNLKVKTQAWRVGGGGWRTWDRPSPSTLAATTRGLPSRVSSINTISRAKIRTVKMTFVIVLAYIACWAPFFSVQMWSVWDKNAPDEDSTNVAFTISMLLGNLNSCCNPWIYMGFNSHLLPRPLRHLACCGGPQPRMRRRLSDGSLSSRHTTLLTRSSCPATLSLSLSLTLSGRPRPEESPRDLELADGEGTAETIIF
Method in brief: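 Radioligand displacement on membranes carrying human V1b receptor in 50 mM tris, 10 mM MgCl2, 0.1% BSA, pH 7.4, 2% DMSO final; 60 min at room temperature, nonspecific binding with 1 μM AVP. Free ligand removed by filtration, bound counted by liquid scintillation, Ki from nonlinear regression of triplicates.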
For `COc1ccc(CN2CCN(C)CC2)cc1C1(N2CCC[C@H]2c2ncco2)C(=O)N(S(=O)(=O)c2cccs2)c2ccc(Cl)cc21` (stereo partly drawn) [Example 171, 5-Chloro-3-[2-methoxy-5-(4-methylpiperazin-1-ylmethyl)phenyl]-3-((S)-2-oxazol-2-yl-pyrrolidin-1-yl)-1-(thiophene-2-sulfonyl)-1,3-dihydroindol-2-one], the Ki was 0.01 to 0.1 µM.
`COc1ccc(S(=O)(=O)N2C(=O)C(c3ccc(CN(C)C)cc3OC)(N3C[C@H](O)C[C@H]3c3ncco3)c3cc(C#N)ccc32)cc1` (stereo partly drawn) [Example 172, 5-Cyano-3-(4-dimethylaminomethyl-2-methoxyphenyl)-3-((2S,4R)-4-hydroxy-2-oxazol-2-yl-pyrrolidin-1-yl)-1-(4-methoxybenzenesulfonyl)-1,3-dihydroindol-2-one] gave a Ki of 0.01 to 0.1 µM.
In the case of `COc1ccc(S(=O)(=O)N2C(=O)C(c3cc(CN4CCN(C)CC4)ccc3F)(N3CCC[C@H]3c3ncco3)c3cc(Cl)ccc32)cc1` (stereo partly drawn) [Example 173, 5-Chloro-3-[2-fluoro-5-(4-methylpiperazin-1-ylmethyl)phenyl]-1-(4-methoxybenzenesulfonyl)-3-((S)-2-oxazol-2-yl-pyrrolidin-1-yl)-1,3-dihydroindol-2-one], the Ki is reported as 0.01 to 0.1 µM.
`COc1ccc(S(=O)(=O)N2C(=O)C(c3cc(CN(C)C)ccc3F)(N3CCC[C@H]3c3ncco3)c3cc(Cl)ccc32)cc1` (stereo partly drawn) [Example 174, 5-Chloro-3-(5-dimethylaminomethyl-2-fluorophenyl)-1-(4-methoxybenzenesulfonyl)-3-((S)-2-oxazol-2-yl-pyrrolidin-1-yl)-1,3-dihydroindol-2-one] was tested, and the Ki was 0.01 to 0.1 µM.
In the case of `COc1ccc(S(=O)(=O)N2C(=O)C(c3cc(CNC(C)C)ccc3F)(N3CCC[C@H]3c3ncco3)c3cc(Cl)ccc32)cc1` (stereo partly drawn) [Example 175, 5-Chloro-3-[2-fluoro-5-(isopropylaminomethyl)phenyl]-1-(4-methoxybenzenesulfonyl)-3-((S)-2-oxazol-2-yl-pyrrolidin-1-yl)-1,3-dihydroindol-2-one], the Ki is reported as 0.01 to 0.1 µM.
Compound `CCNCc1ccc(F)c(C2(N3CCC[C@H]3c3ncco3)C(=O)N(S(=O)(=O)c3ccc(OC)cc3)c3ccc(Cl)cc32)c1` (stereo partly drawn) [Example 176, 5-Chloro-3-(5-ethylaminomethyl-2-fluorophenyl)-1-(4-methoxybenzenesulfonyl)-3-((S)-2-oxazol-2-yl-pyrrolidin-1-yl)-1,3-dihydroindol-2-one] has a Ki of 0.01 to 0.1 µM.
In the case of `CCCNCc1ccc(OC)c(C2(N3C[C@H](O)C[C@H]3c3ncco3)C(=O)N(S(=O)(=O)c3ccc(OC)cc3)c3ccc(C#N)cc32)c1` (stereo partly drawn) [Example 177, 5-Cyano-3-((2S,4R)-4-hydroxy-2-oxazol-2-yl-pyrrolidin-1-yl)-1-(4-methoxybenzenesulfonyl)-3-(2-methoxy-5-propylaminomethylphenyl)-1,3-dihydroindol-2-one], the Ki is reported as less than 0.01 µM.
`COc1ccc(S(=O)(=O)N2C(=O)C(c3ccc(CN4CCN(C)CC4)cc3OC)(N3C[C@H](O)C[C@H]3c3ncco3)c3cc(C#N)ccc32)cc1` (stereo partly drawn) [Example 178, 5-Cyano-3-((2S,4R)-4-hydroxy-2-oxazol-2-yl-pyrrolidin-1-yl)-1-(4-methoxybenzenesulfonyl)-3-[2-methoxy-4-(4-methylpiperazin-1-ylmethyl)phenyl]-1,3-dihydroindol-2-one] was tested, and the Ki was less than 0.01 µM.
`CCN1CCN(Cc2ccc(C3(N4C[C@H](O)C[C@H]4c4ncco4)C(=O)N(S(=O)(=O)c4ccc(OC)cc4)c4ccc(C#N)cc43)c(OC)c2)CC1` (stereo partly drawn) [Example 179, 5-Cyano-3-[4-(4-ethylpiperazin-1-ylmethyl)-2-methoxyphenyl]-3-((2S,4R)-4-hydroxy-2-oxazol-2-yl-pyrrolidin-1-yl)-1-(4-methoxybenzenesulfonyl)-1,3-dihydroindol-2-one] was tested, and the Ki was less than 0.01 µM.
`COc1cc(CN2CCN(C)CC2)ccc1C1(N2C[C@H](O)C[C@H]2c2ncco2)C(=O)N(S(=O)(=O)c2ccc(C#N)cc2)c2ccc(Cl)cc21` (stereo partly drawn) [Example 180, 5-Chloro-3-((2S,4R)-4-hydroxy-2-oxazol-2-yl-pyrrolidin-1-yl)-3-[2-methoxy-4-(4-methylpiperazin-1-ylmethyl)phenyl]-1-(4-cyanobenzenesulfonyl)-1,3-dihydroindol-2-one] gave a Ki of less than 0.01 µM.
`CCN1CCN(Cc2ccc(C3(N4C[C@H](O)C[C@H]4c4ncco4)C(=O)N(S(=O)(=O)c4ccc(C#N)cc4)c4ccc(Cl)cc43)c(OC)c2)CC1` (stereo partly drawn) [Example 181, 5-Chloro-3-[4-(4-ethylpiperazin-1-ylmethyl)-2-methoxyphenyl]-3-((2S,4R)-4-hydroxy-2-oxazol-2-yl-pyrrolidin-1-yl)-1-(4-cyanobenzenesulfonyl)-1,3-dihydroindol-2-one] was tested, and the Ki was less than 0.01 µM.
`COc1cc(CN(C)C)ccc1C1(N2C[C@H](O)C[C@H]2c2ncco2)C(=O)N(S(=O)(=O)c2ccc(C#N)cc2)c2ccc(Cl)cc21` (stereo partly drawn) [Example 182, 5-Chloro-3-(4-dimethylaminomethyl-2-methoxyphenyl)-3-((2S,4R)-4-hydroxy-2-oxazol-2-yl-pyrrolidin-1-yl)-1-(4-cyanobenzenesulfonyl)-1,3-dihydroindol-2-one] gave a Ki of 0.01 to 0.1 µM.
Compound `COc1cc(CN2CCCC2)ccc1C1(N2C[C@H](O)C[C@H]2c2ncco2)C(=O)N(S(=O)(=O)c2ccc(C#N)cc2)c2ccc(Cl)cc21` (stereo partly drawn) [Example 183, 5-Chloro-3-((2S,4R)-4-hydroxy-2-oxazol-2-yl-pyrrolidin-1-yl)-3-(2-methoxy-4-(pyrrolidin-1-ylmethyl)phenyl)-1-(4-cyanobenzenesulfonyl)-1,3-dihydroindol-2-one] has a Ki of 0.01 to 0.1 µM.
For `COc1ccc(S(=O)(=O)N2C(=O)C(c3cc(CN4CCN(C)CC4)cc4c3OCO4)(N3CCC[C@H]3c3ncco3)c3cc(Cl)ccc32)cc1` (stereo partly drawn) [Example 184, 5-Chloro-1-(4-methoxybenzenesulfonyl)-3-[6-(4-methylpiperazin-1-ylmethyl)benzo[1,3]dioxol-4-yl]-3-((S)-2-oxazol-2-yl-pyrrolidin-1-yl)-1,3-dihydroindol-2-one], the Ki was less than 0.01 µM.
With `CNCc1cc2c(c(C3(N4CCC[C@H]4c4ncco4)C(=O)N(S(=O)(=O)c4ccc(OC)cc4)c4ccc(Cl)cc43)c1)OCO2` (stereo partly drawn) [Example 185, 5-Chloro-1-(4-methoxybenzenesulfonyl)-3-(6-methylaminomethylbenzo[1,3]dioxol-4-yl)-3-((S)-2-oxazol-2-yl-pyrrolidin-1-yl)-1,3-dihydroindol-2-one] the Ki was 0.01 to 0.1 µM.
Work on `COc1ccc(S(=O)(=O)N2C(=O)C(c3cc(CN(C)C)cc4c3OCO4)(N3CCC[C@H]3c3ncco3)c3cc(Cl)ccc32)cc1` (stereo partly drawn) [Example 186, 5-Chloro-3-(6-dimethylaminomethylbenzo[1,3]dioxol-4-yl)-1-(4-methoxybenzenesulfonyl)-3-((S)-2-oxazol-2-yl-pyrrolidin-1-yl)-1,3-dihydroindol-2-one] yielded a Ki of 0.01 to 0.1 µM.
Work on `COc1ccc(S(=O)(=O)N2C(=O)C(c3cc(CNC(C)C)cc4c3OCO4)(N3CCC[C@H]3c3ncco3)c3cc(Cl)ccc32)cc1` (stereo partly drawn) [Example 187, 5-Chloro-3-[6-(isopropylaminomethyl)benzo[1,3]dioxol-4-yl]-1-(4-methoxybenzenesulfonyl)-3-((S)-2-oxazol-2-yl-pyrrolidin-1-yl)-1,3-dihydroindol-2-one] yielded a Ki of less than 0.01 µM.
`CCNCc1cc2c(c(C3(N4CCC[C@H]4c4ncco4)C(=O)N(S(=O)(=O)c4ccc(OC)cc4)c4ccc(Cl)cc43)c1)OCO2` (stereo partly drawn) [Example 188, 5-Chloro-3-(6-ethylaminomethylbenzo[1,3]dioxol-4-yl)-1-(4-methoxybenzenesulfonyl)-3-((S)-2-oxazol-2-yl-pyrrolidin-1-yl)-1,3-dihydroindol-2-one] gave a Ki of less than 0.01 µM.
Compound `CCNCc1ccc(C2(N3C[C@H](O)C[C@H]3c3ncco3)C(=O)N(S(=O)(=O)c3ccc(C#N)cc3)c3ccc(Cl)cc32)c(OC)c1` (stereo partly drawn) [Example 189, 5-Chloro-3-(4-ethylaminomethyl-2-methoxyphenyl)-3-((2S,4R)-4-hydroxy-2-oxazol-2-yl-pyrrolidin-1-yl)-1-(4-cyanobenzenesulfonyl)-1,3-dihydroindol-2 one] has a Ki of 0.01 to 0.1 µM.
In the case of `CNCc1ccc(C2(N3C[C@H](O)C[C@H]3c3ncco3)C(=O)N(S(=O)(=O)c3ccc(C#N)cc3)c3ccc(Cl)cc32)c(OC)c1` (stereo partly drawn) [Example 190, 5-Chloro-3-((2S,4R)-4-hydroxy-2-oxazol-2-yl-pyrrolidin-1-yl)-3-(2-methoxy-4-methylaminomethylphenyl)-1-(4-cyanobenzenesulfonyl)-1,3-dihydroindol-2 one], the Ki is reported as 0.01 to 0.1 µM.
With `COc1ccc(S(=O)(=O)N2C(=O)C(c3cc(CN4CCC(O)CC4)ccc3OC)(N3CCC[C@H]3c3ncco3)c3cc(C#N)ccc32)cc1` (stereo partly drawn) [Example 191, 5-Cyano-3-[5-(4-hydroxypiperidin-1-ylmethyl)-2-methoxyphenyl]-1-(4-methoxybenzenesulfonyl)-3-((S)-2-oxazol-2-yl-pyrrolidin-1-yl)-1,3-dihydroindol-2-one] the Ki was less than 0.01 µM.
Work on `COc1ccc(S(=O)(=O)N2C(=O)C(c3cccc(CN4CCN(C)CC4)c3OC)(N3CCC[C@H]3c3ncco3)c3cc(Cl)ccc32)cc1` (stereo partly drawn) [Example 192, 5-Chloro-1-(4-methoxybenzenesulfonyl)-3-[2-methoxy-3-(4-methylpiperazin-1-ylmethyl)phenyl]-3-((S)-2-oxazol-2-yl-pyrrolidin-1-yl)-1,3-dihydroindol-2-one] yielded a Ki of less than 0.01 µM.
